Experimental data taken from PMC10279920, “Single-molecule visualization of Pif1 helicase translocation on single-stranded DNA” (The Journal of Biological Chemistry, 2023).
Changes are numbered by the printed parent chain.

How the values were obtained:
Assay in all cases: ATP hydrolysis, [γ-32P]-ATP TLC, Michaelis-Menten fit
Assay type in all cases: biochemical
Details in all cases: M13 ssDNA 1.5 μM nt, 10 nM Pif1, 5 mM MgCl2, 60 mM KCl, pH 7.5, 30 °C, no RPA; labelled compound as tracer
GFP-Pif1 [1] = target: T1, GFP-Pif1 (Saccharomyces cerevisiae, UniProt P07271, E724A)
T1 construct: N-terminal superfolder GFP fusion of nuclear isoform residues 40-859, pRSF-Duet-1, E. coli Rosetta2(DE3), Ni-NTA purified
T1 sequence (P07271 40-859 E724A): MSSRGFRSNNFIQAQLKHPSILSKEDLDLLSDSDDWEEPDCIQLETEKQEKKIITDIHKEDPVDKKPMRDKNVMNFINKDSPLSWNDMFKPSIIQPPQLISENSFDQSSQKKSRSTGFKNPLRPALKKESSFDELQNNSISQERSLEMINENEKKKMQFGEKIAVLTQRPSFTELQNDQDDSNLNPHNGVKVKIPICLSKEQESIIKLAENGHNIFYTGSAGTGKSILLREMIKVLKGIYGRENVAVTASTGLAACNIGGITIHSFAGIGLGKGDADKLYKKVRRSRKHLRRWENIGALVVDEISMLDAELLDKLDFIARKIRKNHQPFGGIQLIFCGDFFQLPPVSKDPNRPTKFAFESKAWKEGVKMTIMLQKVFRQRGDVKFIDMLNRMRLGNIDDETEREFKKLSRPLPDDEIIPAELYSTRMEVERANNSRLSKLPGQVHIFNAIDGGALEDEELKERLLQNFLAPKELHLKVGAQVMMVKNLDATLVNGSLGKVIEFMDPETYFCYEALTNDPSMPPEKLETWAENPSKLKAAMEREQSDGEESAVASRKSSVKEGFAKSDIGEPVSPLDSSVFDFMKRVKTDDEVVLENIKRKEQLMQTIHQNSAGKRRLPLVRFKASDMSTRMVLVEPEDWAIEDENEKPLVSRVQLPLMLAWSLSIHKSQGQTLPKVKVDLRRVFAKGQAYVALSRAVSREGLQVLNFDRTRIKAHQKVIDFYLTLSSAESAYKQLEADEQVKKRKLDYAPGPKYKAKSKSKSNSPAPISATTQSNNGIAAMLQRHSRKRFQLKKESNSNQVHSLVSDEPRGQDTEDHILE
Method: (§1) ATP hydrolysis, [γ-32P]-ATP TLC, Michaelis-Menten fit on GFP-Pif1 | each of the mutant proteins was tested for ATPase activity

GFP-Pif1 [2] = target: T2, GFP-Pif1 (Saccharomyces cerevisiae, UniProt P07271, H303A)
T2 construct: N-terminal superfolder GFP fusion of nuclear isoform residues 40-859, pRSF-Duet-1, E. coli Rosetta2(DE3), Ni-NTA purified
T2 sequence (P07271 40-859 H303A): T1 sequence (P07271 40-859 E724A) with H264A, A685E
Method: as §1

GFP-Pif1 [3] = target: T3, GFP-Pif1 (Saccharomyces cerevisiae, UniProt P07271, K312A)
T3 construct: N-terminal superfolder GFP fusion of nuclear isoform residues 40-859, pRSF-Duet-1, E. coli Rosetta2(DE3), Ni-NTA purified
T3 sequence (P07271 40-859 K312A): T1 sequence (P07271 40-859 E724A) with K273A, A685E
Method: as §1

Nc1ncnc2c1ncn2[C@@H]1O[C@H](COP(=O)(O)OP(=O)(O)OP(=O)(O)O)[C@@H](O)[C@H]1O [ATP] gave a Km (GFP-Pif1 [1]) of 1470 ± 1370 µM, a Km (GFP-Pif1 [2]) of 870 ± 1320 µM and a Km (GFP-Pif1 [3]) of 380 ± 310 µM.
